Assay results from patent publication US20050090522A1 (priority 2001, published 2005).
Read-outs that look alike come from different tables or passages of the source.

System: HIV-1
Test: HIV-1 single-round infectious luciferase reporter virus (pseudotype) assay in HeLa CD4 CCR5 cells
Assay type: cell-based
How it was run: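 HeLa CD4 CCR5 cells (5×10^4/well, DMEM + 10% FBS) were treated with compound (final <10 μM) and infected with single-round luciferase reporter virus made in 293 cells, at MOI ~0.01. Luciferase was read 72 h post infection. EC50 came from 10-concentration percent-inhibition curves fitted to a four-parameter logistic model.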

[1] = Human immunodeficiency virus 1, HeLa-CD4/CCR5, read-out: EC50 Group from Table 1, Table 2-1, HeLa CD4 CCR5 cells, single-round luciferase reporter virus
[2] = Human immunodeficiency virus 1, HeLa-CD4/CCR5, read-out: EC50 Group from TABLE 1, HeLa CD4 CCR5 cells, single-round infectious luciferase reporter virus

| Structure (SMILES) | EC50 [2] | other results |
| --- | --- | --- |
| COc1cnc(-n2nccc2N)c2[nH]cc(C(=O)C(=O)N3CCN(C(=O)c4ccccc4)[C@H](C)C3)c12 [Example 254, (R)-1-benzoyl-2-methyl-4-[(4-methoxy-7-(5-amino-pyrazol-1-yl)-6-azaindol-3-yl)-oxoacetyl]piperazine] | – | EC50 [1]: < 1000 nM |
| C[C@@H]1CN(C(=O)c2ccccn2)CCN1C(=O)C(=O)c1c[nH]c2c(-c3cc4ccccc4o3)nccc12 [Example 107, (R)-1-picolinoyl-3-methyl-4-[(7-(benzofuran-2-yl)-6-azaindol-3-yl)-oxoacetyl]piperazine] | < 1000 nM | – |
| COc1nc(-c2ncc(OC)c3c(C(=O)C(=O)N4CCN(C(=O)c5ccccc5)CC4)c[nH]c23)cnc1N [Example 101, 1-benzoyl-4-[(4-methoxy-7-(2-amino-3-methoxy-pyrazin-5-yl)-6-azaindol-3-yl)-oxoacetyl]piperazine] | < 1000 nM | – |
| COc1cnc(-c2cnc(O)cn2)c2[nH]cc(C(=O)C(=O)N3CCN(C(=O)c4ccccc4)[C@H](C)C3)c12 [Example 271] | – | EC50 [1]: < 1000 nM |
| COc1cnc(-c2cnc(-n3cccc3)nc2)c2[nH]cc(C(=O)C(=O)N3CCN(C(=O)c4ccccc4)CC3)c12 [Example 118, 1-benzoyl-4-[(4-methoxy-7-(2-(pyrrol-1-yl)-pyrimidin-5-yl)-6-azaindol-3-yl)-oxoacetyl]piperazine] | < 1000 nM | – |
| O=C(C(=O)N1CCN(C(=O)c2ccccc2)CC1)c1c[nH]c2c(-n3cncn3)ncc(F)c12 [Example 215] | < 1000 nM | – |
| O=C(C(=O)N1CCN(C(=O)c2ccccc2)CC1)c1c[nH]c2c(-c3ccncn3)ncc(F)c12 [Example 125] | < 1000 nM | – |
| COc1cnc(-c2cnc(N(C)C)cn2)c2[nH]cc(C(=O)C(=O)N3CCN(C(=O)c4ccccc4)CC3)c12 [Example 72, 1-(benzoyl)-4-[(4-methoxy-7-(2-dimethylamino-pyrazin-5-yl)-6-azaindol-3-yl)-oxoacetyl]piperazine] | < 1000 nM | – |
| C[C@@H]1CN(C(=O)c2ccccc2)CCN1C(=O)C(=O)c1c[nH]c2c(-c3cnco3)cc(Cl)nc12 [Example 63, 1-benzoyl-3-(R)-methyl-4-[(5-chloro-7-(oxazol-5-yl)-4-azaindol-3-yl)-oxoacetyl]piperazine] | – | EC50 (Human immunodeficiency virus 1, HeLa-CD4/CCR5, read-out: EC50 Group from Table 1, Table 4, HeLa CD4 CCR5 cells, single-round luciferase reporter virus): < 1000 nM |
| COc1cnc(-c2cscn2)c2[nH]cc(C(=O)C(=O)N3CCN(C(=O)c4ccccc4)CC3)c12 [Example 174, 1-benzoyl-4-[(4-methoxy-7-(thiazol-4-yl)-6-azaindol-3-yl)-oxoacetyl]piperazine] | < 1000 nM | – |
| COc1cnc(-c2cnc(N(C)CCN(C)C)cn2)c2[nH]cc(C(=O)C(=O)N3CCN(C(=O)c4ccccc4)CC3)c12 [Example 176, 1-benzoyl-4-[(4-methoxy-7-(2-(N-dimethylaminoethyl-N-methyl)aminopyrazin-S-yl)-6-azaindol-3-yl)-oxoacetyl]piperazine] | < 1000 nM | – |
| COc1cnc(-c2cnc(C)cn2)c2[nH]cc(C(=O)C(=O)N3CCN(C(=O)c4ccccn4)CC3)c12 [Example 180, 1-picolinoyl-4-[(4-methoxy-7-(2-methylpyrazin-5-yl)-6-azaindol-3-yl)-oxoacetyl]piperazine] | < 1000 nM | – |
| C[C@H]1CN(C(=O)c2ccccn2)CCN1C(=O)C(=O)c1c[nH]c2c(-c3cc4ccccc4o3)nccc12 [Example 108, (S)-1-picolinoyl-3-methyl-4-[(7-(benzofuran-2-yl)-6-azaindol-3-yl)-oxoacetyl]piperazine] | < 1000 nM | – |
| COCc1ccn(-c2ncc(OC)c3c(C(=O)C(=O)N4CCN(C(=O)c5ccccc5)[C@H](C)C4)c[nH]c23)n1 [Example 238, (R)-1-benzoyl-2-methyl-4-[(4-methoxy-7-(3-methoxymethyl-pyrazol-1-yl)-6-azaindol-3-yl)-oxoacetyl]piperazine] | – | EC50 [1]: < 1000 nM |
| COc1cnc(-c2cnc(NC(=O)c3ccncc3)s2)c2[nH]cc(C(=O)C(=O)N3CCN(C(=O)c4ccccc4)CC3)c12 [Example 169] | < 1000 nM | – |
